Entries after “also recorded” stand apart in the source; their conditions may differ.

The results in this text go back to patent US20160346324A1, “Method of Inactivating Bacterial Lipases Using Oxidative Chlorine Species” (NovaBay Pharmaceuticals, Inc., priority 2015, published 2016).

Common to all, as to assay type: biochemical
In assay [1] the target is T1, Burkholderia cepacia lipase (Burkholderia cepacia, UniProt P22088).
T1 construct: purchased Sigma 62309
In words: Lipase Activity Assay Kit III, Burkholderia cepacia lipase treated with HOCl. Particulars: one hour at 37° C. Here is the method: (§1) Lipases from Burkholderia cepacia, Pseudomonas fluorescens, Thermus thermophilus, Talaromyces flavus and Burkholderia species were obtained from Sigma (Catalog Numbers 62309, 28602, L3419, L3294 and 75577, respectively) and were diluted into sterile water for testing.
Activity of 0.01% HOCl in saline pH 4 against Burkholderia cepacia lipase was determined as follows. 0.01% HOCl was added to a solution of 2 mg/mL of Pseudomonas cepacia lipase (Sigma Aldrich®, St. Louis, Mo., USA). After an hour of incubation at 37° C., the lipase-HOCl solutions were diluted 500-fold into lipase buffer. The lipase activity was determined using the Lipase Activity Assay Kit III (Sigma Aldrich®, St. Louis, Mo., USA).
(§2) Alternative procedure: Activity of 0.01% HOCl in saline pH 4 against each lipase was determined as follows. 10 μL of 0.01% HOCl was added to 90 μL of 2 mg/mL lipase (final concentration of HOCl 0.001%). After one hour of incubation at 37° C., the lipase-HOCl solutions were diluted 500-fold into lipase buffer. Alternatively, 90 μL of 0.01% HOCl was added to 10 μL solution of 2 mg/mL lipase (final concentration of HOCl 0.009%) and after an hour of incubation at 37° C., the lipase-HOCl solutions were diluted 50-fold into lipase buffer. The lipase activity was determined using the Lipase Activity Assay Kit III (Sigma Aldrich®, St. Louis, Mo., USA).
A SpectraMax® M5 Microplate Reader was used to continuously incubate the microtiter plate at 37° C. and measure the fluorescence ([…]=529/600 nm) every 5 minutes for 1.5 hours after an initial 10-minute incubation period. The results are shown on FIG. 1.
Alternative procedure without a 10 minutes incubation: A SpectraMax® M5 Microplate Reader was used to continuously incubate the microtiter plate at 37° C. and measure the fluorescence ([…]=529/600 nm) every 5 minutes for 1.5 hours with no incubation period. The results are shown on FIG. 1. […] The results are shown on FIGS. 1, 2, and 3. […] In the presence of 0.009% HOCl, all lipases were inactivated (FIGS. 2, 3).

Assay [2] has as its system lipase. As to the kind of experiment: Lipase Activity Assay Kit III, lipase stock treated with equal part of test product versus sterile water. Particulars: 0.01% HOCl solution, 37° C. for 1 hour. As for the experimental part:
Merck describes a fluorimetric method where lipase activity is determined using a coupled enzyme reaction, which results in the generation of methylresorufin (lex=529/lem=600 nm) proportional to the enzymatic activity present. One unit of lipase is the amount of enzyme that will generate […] of methylresorufin from the substrate per minute at 37° C. (Lipase Activity Assay Kit III Catalog Number MAK048). The lipase stock was treated with equal part of the test product. The control consisted of equal parts of the lipase stock and sterile water. Both were incubated at 37° C. for 1 hour.
The Lipase Activity Assay Kit III (Sigma MAK048) consisted of materials for a standard, a positive control and background control. Once all the controls and the standard were set-up into a 96-well microtiter plate according to the provided instructions, 2 μL of the lipase treatments were diluted into 998 μL of the provided Lipase Assay Buffer. In the microtiter plate, 2 μL of this dilution was added to 48 μL of the Lipase Assay Buffer in quintuplicate. The reaction mix was added to every well except for the standard.
Using the SpectraMax M5, the plate was shaken and incubated for 3 minutes prior to reading the relative fluorescence units (RFU) at λex/λem=529/600 nm. Incubation was continued at 37° C. and the microtiter plate was read every 5 minutes for 1 hour with shaking prior to every reading.

In assay [3] the test system is Pseudomonas fluorescens lipase. As to the kind of experiment: Lipase Activity Assay Kit III, Pseudomonas fluorescens lipase treated with HOCl. Particulars: one hour at 37° C. Here is the method: as §1, §2
(§3) Alternative procedure without a 10 minutes incubation: A SpectraMax® M5 Microplate Reader was used to continuously incubate the microtiter plate at 37° C. and measure the fluorescence ([…]=529/600 nm) every 5 minutes for 1.5 hours with no incubation period. The results are shown on FIG. 1. […]
(§4) Activity of lipases from Pseudomonas fluorescens, Thermusthermophilus, flavus and Burkholderia are determined using methods similar to the one described above for Burkholderia cepacia lipase. […]

The subject of assay [4] is Talaromyces flavus lipase. In words: Lipase Activity Assay Kit III, Talaromyces flavus lipase treated with HOCl. The note with it: one hour at 37° C. As for the experimental part: as §1, §2, §3, §4
The mark [5] stands for this setting: 0.001% HOCl final concentration.
The mark [6] stands for this setting: 0.009% HOCl final concentration.

T1 sequence (P22088 45-364): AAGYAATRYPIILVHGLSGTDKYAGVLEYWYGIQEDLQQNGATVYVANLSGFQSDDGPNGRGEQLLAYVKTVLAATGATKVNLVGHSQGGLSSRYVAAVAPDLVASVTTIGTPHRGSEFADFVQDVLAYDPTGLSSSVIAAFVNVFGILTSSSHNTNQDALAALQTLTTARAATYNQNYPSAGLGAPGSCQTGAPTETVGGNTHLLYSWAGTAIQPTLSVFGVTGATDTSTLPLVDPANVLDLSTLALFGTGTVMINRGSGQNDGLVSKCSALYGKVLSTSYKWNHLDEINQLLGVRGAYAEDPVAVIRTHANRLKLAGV

On to `OCl` [HOCl, hypochlorous acid], for which the “inactivation of Burkholderia cepacia lipase” value in assay [1] (setting [5]) is given as “still active”; in assay [1] (setting [6]) it was “inactivation; also recorded: inactivated”. Further, the “inactivation of bacterial lipase (lipase activity, fluorescence)” value in assay [1] (0.01% HOCl in saline pH 4, 2 mg/mL lipase) is given as “completely inactivated”. In addition, the “inactivation of lipase versus sterile water control” value in assay [2] was “inactivates lipase”. Moreover, the “inactivation of Pseudomonas fluorescens lipase” value is “still active” in assay [3] (setting [5]) and “inactivation; also recorded: inactivated” in assay [3] (setting [6]). Also, the “inactivation of Talaromyces flavus lipase” value is “inactivation; also recorded: completely inactivated” in assay [4] (setting [5]) and “inactivated” in assay [4] (setting [6]).
